From the NIST ThermoML archive (doi:10.1016/j.fluid.2006.05.014)

Assay: xn = mol fraction of the nth substance listed
Conditions: Liquid, dividing mass by volume

CCCCCCCC [octane] + O=C=O
Conditions	mass density [kg/m3]
313.2 K, x2 = 0.11	730
313.2 K, x2 = 0.2134	729
313.2 K, x2 = 0.3377	729.3
313.2 K, x2 = 0.4342	711.9
313.2 K, x2 = 0.5534	692.7
313.2 K, x2 = 0.6752	663.5
313.2 K, x2 = 0.752	644.6
313.2 K, x2 = 0.8581	585
313.2 K, x2 = 0.9447	462.3
333.2 K, x2 = 0.1573	683.6
333.2 K, x2 = 0.206	678.5
333.2 K, x2 = 0.2891	670.1
333.2 K, x2 = 0.3593	660.5
333.2 K, x2 = 0.4296	657.3
333.2 K, x2 = 0.4956	641.9
333.2 K, x2 = 0.5915	627.8
333.2 K, x2 = 0.7413	556.8
333.2 K, x2 = 0.8558	516.5
333.2 K, x2 = 0.9383	436.1
353.2 K, x2 = 0.1452	658.6
353.2 K, x2 = 0.2452	651.5
353.2 K, x2 = 0.3596	642.5
353.2 K, x2 = 0.4373	635.4
353.2 K, x2 = 0.4948	621.3
353.2 K, x2 = 0.5783	614.8
353.2 K, x2 = 0.6237	600.1
353.2 K, x2 = 0.7761	585.8
353.2 K, x2 = 0.8255	560
353.2 K, x2 = 0.9154	458.2
373.2 K, x2 = 0.2172	550.7
373.2 K, x2 = 0.369	565.2
373.2 K, x2 = 0.5134	584.2
373.2 K, x2 = 0.5706	592.6
373.2 K, x2 = 0.6538	591.7
373.2 K, x2 = 0.7837	565.8
373.2 K, x2 = 0.8522	516.3
373.2 K, x2 = 0.902	425.1
393.2 K, x2 = 0.156	510.3
393.2 K, x2 = 0.2689	525.1
393.2 K, x2 = 0.3933	531.4
393.2 K, x2 = 0.4582	537.8
393.2 K, x2 = 0.522	544.7
393.2 K, x2 = 0.5922	546.8
393.2 K, x2 = 0.6738	551.1
393.2 K, x2 = 0.7464	553.2
393.2 K, x2 = 0.8146	519.8
393.2 K, x2 = 0.8728	400.2
